The values that follow come from patent US11691990B2, “Salts of compounds and crystals thereof” (Eisai R&D Management Co., Ltd., priority 2018, dated 2023).

One experiment has as its system CT26 tumor cells. As to the kind of experiment: CT26 dual tumor model (mouse colon cancer model). The experiment is classed as in vivo. The following applies: I.T. single dose, study B. As for the experimental part:
For study A, treatment was started 5 days (1.25 mg/kg, 2.5 mg/kg and 5 mg/kg) after the tumor implantation, when the average tumors reached approximately 100 mm^3. For study B, treatment was started 8 days (0.6 mg/kg, and 10 mg/kg) after the tumor implantation, when the average tumors reached approximately 120 mm^3. The treatment scheme is described in Table 5 and Table 6.
All the mice in the study have two subcutaneous CT26 tumors. The “treated tumor” indicates the tumor with compound direct administration, while “untreated tumor” indicates the tumor without direct compound administration. Tumor volume was followed throughout the experiment. Tumor volume is measured two times weekly after the start of treatment. Tumor burden is calculated from caliper measurements by the formula for the volume of a prolate ellipsoid (L×W^2)/2 where L and W are the respective orthogonal length and width measurements (mm).

The subject of a further experiment is primary human PBMC. As to the kind of experiment: Ex vivo human PBMC stimulation assay, IFNβ protein. The settings on record: 24 hours, average of five donors. The experiment is classed as cell-based. As for the experimental part: Human blood from 5 healthy donors was collected using 10.0 mL BD Vacutainer Sodium heparin tubes (cat #367874). Peripheral blood mononuclear cell (PBMC) isolation was done using SIGMA ACCUSPIN 50 ml Tubes (cat #A2055) and sigma ACCUSPIN System-HISTOPAQUE-1077 (cat #A7054) using protocol provided by manufacturer. […] PBMC were counted and finally suspended at 1×10e6/ml in RPMI (corning cat #10-041-CV) supplemented with 10% fetal bovine serum (FBS) (Gibco cat #20140.79). 1 ml of cell (1×10e6) were transferred into Falcon 5 mL Round Bottom Polypropylene Test Tube (cat #352063) and stimulated with different concentrations ([…]) for 24 hours in 5% CO2 incubator at 37° C. After 24 hours of incubation the tubes were centrifuged at 1400 rpm for 5 minutes and supernatants were harvested. Supernatant were stored in −80° C. for subsequent IFN measurement. IFNβ measurement was done using Human IFN-β Base Kit (Meso Scale Diagnostics cat #K151ADA) and protocol provided by manufacturer was used. IFN-beta estimation was done by reading assay plate at MESO SECTOR Imager 2400 and using MSD Discovery Workbench 4.0 program. After 24 hours IFNβ protein was analyzed. […] Results shown in Table 3 reflect an average of measurements conducted using five different donors.

For `O=[P@]1(S)OC[C@H]2O[C@@H]3[C@H](F)[C@@H]2O[P@](=O)(S)OC[C@H]2O[C@H]([C@H](F)[C@@H]2O1)n1cnc2c(ncnc21)NC/C=C/CNc1ncnc2c1ncn23` [Compound (1a), (1R,3R,15E,28R,29R,30R,31R,34R,36R,39S,41R)-29,41-Difluoro-34,39-bis(sulfanyl)-2,33,35,38,40,42-hexaoxa-4,6,9,11,13,18,20,22,25,27-decaaza-34λ^5,39λ^5-diphosphaoctacyclo[28.6.4.1^3,36.1^28,31.0^4,8.0^7,12.0^19,24.0^23,27]dotetraconta-5,7,9,11,15,19,21,23,25-nonaene-34,39-dione], the “cure rate, treated tumors” value with CT26 tumor cells (0.6 mg/kg) is on record as 20%. In the experiment with CT26 tumor cells (10 mg/kg), the “animals cured of treated tumor at the end of study” value stood at 100%. Besides, in the experiment on CT26 tumor cells (10 mg/kg), the “curative effects, untreated tumors” value is listed as 80%. Besides, the IFNβ with primary human PBMC (0.1 μM) came to 21.3 ± 17.8 pg/mL; with primary human PBMC (1 μM), 227.5 ± 62.4 pg/mL; with primary human PBMC (10 μM), 540.2 ± 215.0 pg/mL.
